Measured values from the NIST ThermoML archive (doi:10.1021/acs.jced.8b00908).
Numbers after ± are expanded uncertainties.

Conditions: Liquid, Ebulliometric method (Recirculating still)

C=CCO [2-propenol]
vapor or sublimation pressure (369.94 K): 101.3 ± 3.5 kPa

CCOC(C)=O [ethyl acetate]
vapor or sublimation pressure (350.28 K): 101.3 ± 3.5 kPa

CCC(=O)OC [methyl propanoate]
vapor or sublimation pressure (352.47 K): 101.3 ± 3.5 kPa

ClC(Cl)Cl [trichloromethane]
vapor or sublimation pressure (334.12 K): 101.3 ± 3.5 kPa
